Measurements from patent US6960588B1, “Tryptase inhibitors” (Altana Pharma AG, priority 1999, dated 2005).
Counter-ions that a name gives are not always drawn.

What follows are compounds tested against human tryptase (assay: Inhibition of human tryptase (apparent dissociation constant, chromogenic substrate tos-Gly-Pro-arg-pNA)). Settings: apparent dissociation constant in presence of substrate; heparin 0.1–50 μg/ml; equilibrium conditions; read-out: Kiapp.
Assay type: biochemical
From the text: The documented pathophysiological effects of mast cell tryptase are caused directly by the enzymatic activity of the protease. Accordingly, they are reduced or blocked by inhibitors which inhibit the enzymatic activity of the tryptase. A suitable measure for the affinity of a reversible inhibitor to the target protease is the equilibrium dissociation constant Ki of the enzyme-inhibitor complex. This Ki value can be determined via the effect of the inhibitor on the tryptase-induced cleavage of a chromogenic peptide-p-nitroanilide substrate or a fluorogenic peptide-aminomethylcoumarin substrate.
The dissociation constants for the tryptase-inhibitor complexes are determined under equilibrium conditions in accordance with the general proposals of Bieth (Bieth J G, Pathophysiological Interpretation of kinetic constants of protease inhibitors, Bull. Europ. Physiopath. Resp. 16:183–195, 1980) and the methods of Sommerhoff et al. (Sommerhoff C P et al., A Kazal-type inhibitor of human mast cell tryptase: Isolation from the medical leech Hirudo medicinalis, characterization, and sequence analysis, Biol. Chem. Hoppe-Seyler 375: 685–694, 1994).
Human tryptase is isolated from lung tissue or prepared recombinantly; the specific activity of the protease, determined by titration, is usually greater than 85% of the theoretical value. In the presence of heparin (0.1–50 μg/ml) for stabilizing the protease, constant amounts of the tryptase are incubated with increasing amounts of the inhibitors. After an equilibrium between the reaction partners has formed, the remaining enzyme activity after addition of the peptide-p-nitroanilide substrate tos-Gly-Pro-argpNA is determined and the cleavage of the latter is monitored at 405 nm for 3 min. Alternatively, the remaining enzymatic activity can also be determined using fluorogenic substrates. The apparent dissociation constants Kiapp (i.e. in the presence of substrate) are subsequently determined by adapting the enzyme rates to the general equation for reversible inhibitors (Morrison J F, Kinetics of the reversible inhibition of enzyme-catalyzed reactions by tight-binding inhibitors, Biochim. Biophys. Acta 185, 269–286, 1969) using non-linear regression: V1/V0=1−{Et+It+Kiapp−[(Et+It+Kiapp)^2−4EtIt]^1/2}/2Et V1 and V0 are the rates in the presence and absence, respectively, of the inhibitor, and Et and It are the tryptase and inhibitor concentrations, respectively.
The apparent dissociation constants determined for the compounds according to the invention are shown in Table A below, where the numbers of the compounds correspond to the numbers of the compounds in the examples.
Compound `NCC1CCC(C(=O)N2CCN(C(=O)OCC#Cc3ccc(C#CCOC(=O)N4CCN(C(=O)C5CCC(CN)CC5)CC4)cc3)CC2)CC1` (stereo not drawn) [Compound 1, 1,4-Bis[4-(trans-4-aminomethylcyclohexylcarbonyl)-1-piperazinylcarbonyl-1-oxyprop-2-ynyl]benzene Dihydrochloride] has a Ki of 3 nM.
Compound `NCc1ccc(CNC(=O)N2CCN(C(=O)OCC#Cc3cccc(C#CCOC(=O)N4CCN(C(=O)NCc5ccc(CN)cc5)CC4)c3)CC2)cc1` [Compound 2, 1,3-Bis[4-(4-aminomethylbenzylaminocarbonyl)-1-piperazinylcarbonyl-1-oxyprop-2-ynyl]-benzene Dihydrochloride] has a Ki of 10 nM.
`NC[C@H]1CC[C@H](C(=O)N2CCN(C(=O)OCC#Cc3ccccc3C#CCOC(=O)N3CCN(C(=O)[C@H]4CC[C@H](CN)CC4)CC3)CC2)CC1` [Compound 3, 1,2-Bis[4-(trans-4-aminomethylcyclohexylcarbonyl)-1-piperazinylcarbonyl-1-oxyprop-2-ynyl]benzene Dihydrochloride] gave a Ki of 200 nM.
Work on `NCc1ccc(CNC(=O)N2CCN(C(=O)OCC#Cc3ccccc3C#CCOC(=O)N3CCN(C(=O)NCc4ccc(CN)cc4)CC3)CC2)cc1` [Compound 4, 1,2-Bis[4-(4-aminomethylbenzylaminocarbonyl)-1-piperazinylcarbonyl-1-oxyprop-2-ynyl]-benzene Dihydrochloride] yielded a Ki of 3 nM.
With `NCc1ccc(CNC(=O)OCC#Cc2cccc(C#CCOC(=O)NCc3ccc(CN)cc3)c2)cc1` [Compound 5, 1,3-Bis-(4-aminomethylbenzylaminocarbonyl-1-oxyprop-2-ynyl)-benzene Dihydrochloride] the Ki was 32 nM.
Compound `NCc1ccc(CNC(=O)OCC#Cc2ccccc2C#CCOC(=O)NCc2ccc(CN)cc2)cc1` [Compound 6, 1,2-Bis-(4-aminomethylbenzylaminocarbonyl-1-oxyprop-2-ynyl)-benzene Dihydrochloride] has a Ki of 300 nM.
With `NCc1ccc(CNC(=O)OCC#Cc2cscc2C#CCOC(=O)NCc2ccc(CN)cc2)cc1` [Compound 7, 3,4-Bis-(4-aminomethylbenzylaminocarbonyl-1-oxyprop-2-ynyl)-thiophene Dihydrochloride] the Ki was 120 nM.
Compound `NCc1ccc(CNC(=O)OCC#Cc2ccc(C#CCOC(=O)NCc3ccc(CN)cc3)o2)cc1` [Compound 8, 2,5-Bis-(4-aminomethylbenzylaminocarbonyl-1-oxyprop-2-ynyl)-furan Dihydrochloride] has a Ki of 80 nM.
Compound `NCc1cccc(CNC(=O)OCC#Cc2ccc(C#CCOC(=O)NCc3cccc(CN)c3)o2)c1` [Compound 9, 2,5-Bis-(3-aminomethylbenzylaminocarbonyl-1-oxyprop-2-ynyl)-furan Dihydrochloride] has a Ki of 7.5 nM.
`NCc1cccc(CNC(=O)OCC#Cc2cscc2C#CCOC(=O)NCc2cccc(CN)c2)c1` [Compound 10, 3,4-Bis-(3-aminomethylbenzylaminocarbonyl-1-oxyprop-2-ynyl)-thiophene Dihydrochloride] gave a Ki of 150 nM.
`NCc1ccc(CNC(=O)COCC#Cc2ccc(C#CCOCC(=O)NCc3ccc(CN)cc3)cc2)cc1` [Compound 11, 1,4-Bis-(4-aminomethylbenzylaminocarbonylmethyl-1-oxyprop-2-ynyl)-benzene Dihydrochloride] gave a Ki of 30 nM.
In the case of `NCc1ccc(CNC(=O)COCC#Cc2cccc(C#CCOCC(=O)NCc3ccc(CN)cc3)c2)cc1` [Compound 12, 1,3-Bis-(4-aminomethylbenzylaminocarbonylmethyl-1-oxyprop-2-ynyl)-benzene Dihydrochloride], the Ki is reported as 13 nM.
`NCc1ccc(CC(=O)C#CC(N)c2ccc(C(N)C#CC(=O)Cc3ccc(CN)cc3)cc2)cc1` (centres unmarked) [Compound 13, 1,4-Bis-(4-aminomethylbenzylcarbonyl-1-aminoprop-2-ynyl)-benzene Dihydrochloride] gave a Ki of 130 nM.
`NCc1ccc(CC(=O)C#CC(N)c2ccccc2C(N)C#CC(=O)Cc2ccc(CN)cc2)cc1` (centres unmarked) [Compound 14, 1,2-Bis-(4-aminomethylbenzylcarbonyl-1-aminoprop-2-ynyl)-benzene Dihydrochloride] gave a Ki of 330 nM.
